Reference: ChEMBL document CHEMBL5331081, “Discovery of cysteine-targeting covalent histone methyltransferase inhibitors” (Eur J Med Chem, 2023)

Legend:
in vivo = conditions: CD-1, mouse, po, 100 mg/kg
[1] = target: Menin/Histone-lysine N-methyltransferase MLL (Homo sapiens, UniProt O00255+Q03164); assay: Inhibition of menin (unknown origin)/MLL (unknown origin) protein-protein interaction by fluorescence polarization assay
MV4-11 [2] = assay: Anticancer activity against human MV4-11 cells assessed as cell growth inhibition; type: functional
[3] = Reduction in H3K9me2 level in human MDA-MB-231 cells incubated for 48 hrs by ChIP assay; type: functional, cell-based; conditions: MDA-MB-231, 48 h
A549 = assay: Anticancer activity against human A549 cells assessed as cell growth inhibition measured after 48 hrs by CCK-8 assay; type: functional
NCI-H1299 = assay: Anticancer activity against human NCI-H1299 cells assessed as cell growth inhibition measured after 48 hrs by CCK-8 assay; type: functional
MDA-MB-231 = assay: Anticancer activity against human MDA-MB-231 cells assessed as cell growth inhibition measured after 48 hrs by CCK-8 assay; type: functional
MCF7 = assay: Anticancer activity against human MCF7 cells assessed as cell growth inhibition measured after 48 hrs by CCK-8 assay; type: functional
MV4-11 [4] = assay: Anticancer activity against human MV4-11 cells harboring MLL-AF4 fusion protein assessed as cell growth inhibition measured after 7 days by WST-8 assay; type: functional; conditions: MV4-11, 168 h, pooled result: one value given for 6 cell lines, strains, targets or settings, time 7 day
K562 = assay: Anticancer activity against human K562 cells assessed as cell growth inhibition measured after 7 days by WST-8 assay; type: functional; conditions: K562, 168 h, time 7 day
[5] = Anticancer activity against human MOLM16 cells assessed as cell growth inhibition measured after 7 days by WST-8 assay; type: functional, MOLM-16; conditions: MOLM16, 168 h, time 7 day
SKM-1 = assay: Anticancer activity against human SKM-1 cells assessed as cell growth inhibition measured after 7 days by WST-8 assay; type: functional; conditions: SKM-1, 168 h, time 7 day
HL-60 [6] = assay: Anticancer activity against human HL-60 cells assessed as cell growth inhibition measured after 7 days by WST-8 assay; type: functional; conditions: HL-60, 168 h, time 7 day
PBMC [7] = assay: Anticancer activity against mouse PBMC cells harboring NUP98-NSD1 fusion protein assessed as cell growth inhibition measured after 3 days by MTT assay; type: functional; conditions: 72 h, time 3 day
PBMC [8] = assay: Anticancer activity against mouse PBMC cells harboring NUP98-NSD1 fusion protein assessed as cell growth inhibition measured after 7 days by MTT assay; type: functional; conditions: 168 h, time 7 day
HL-60 [9] = assay: Anticancer activity against human HL-60 cells assessed as cell growth inhibition; type: functional
[10] = Selectivity index, ratio of GI50 for human MV4-11 cells harboring MLL-AF4 fusion protein to ratio of GI50 for human HL-60 cells; type: functional
[11] = target: Histone-lysine N-methyltransferase EZH2 (Homo sapiens, UniProt Q15910); assay: Inhibition of EZH2 (unknown origin)

Sequence of Menin/Histone-lysine N-methyltransferase MLL (O00255 whole entry): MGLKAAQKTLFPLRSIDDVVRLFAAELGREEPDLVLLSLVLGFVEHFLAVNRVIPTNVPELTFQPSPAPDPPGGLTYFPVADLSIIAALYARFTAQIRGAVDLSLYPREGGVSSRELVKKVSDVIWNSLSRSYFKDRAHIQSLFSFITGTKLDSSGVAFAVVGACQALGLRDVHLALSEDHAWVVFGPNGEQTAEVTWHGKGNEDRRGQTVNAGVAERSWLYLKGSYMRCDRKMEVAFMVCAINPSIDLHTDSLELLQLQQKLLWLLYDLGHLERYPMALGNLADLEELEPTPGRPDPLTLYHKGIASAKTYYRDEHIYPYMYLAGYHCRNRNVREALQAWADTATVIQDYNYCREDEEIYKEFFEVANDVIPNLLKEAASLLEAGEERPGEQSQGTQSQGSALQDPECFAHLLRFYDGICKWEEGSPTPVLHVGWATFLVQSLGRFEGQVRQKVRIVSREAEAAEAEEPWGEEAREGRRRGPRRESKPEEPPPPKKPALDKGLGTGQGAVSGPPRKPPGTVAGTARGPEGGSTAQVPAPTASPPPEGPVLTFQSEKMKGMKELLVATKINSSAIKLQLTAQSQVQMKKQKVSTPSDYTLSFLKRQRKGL
Sequence of Menin/Histone-lysine N-methyltransferase MLL (Q03164 1-2718 limits assumed): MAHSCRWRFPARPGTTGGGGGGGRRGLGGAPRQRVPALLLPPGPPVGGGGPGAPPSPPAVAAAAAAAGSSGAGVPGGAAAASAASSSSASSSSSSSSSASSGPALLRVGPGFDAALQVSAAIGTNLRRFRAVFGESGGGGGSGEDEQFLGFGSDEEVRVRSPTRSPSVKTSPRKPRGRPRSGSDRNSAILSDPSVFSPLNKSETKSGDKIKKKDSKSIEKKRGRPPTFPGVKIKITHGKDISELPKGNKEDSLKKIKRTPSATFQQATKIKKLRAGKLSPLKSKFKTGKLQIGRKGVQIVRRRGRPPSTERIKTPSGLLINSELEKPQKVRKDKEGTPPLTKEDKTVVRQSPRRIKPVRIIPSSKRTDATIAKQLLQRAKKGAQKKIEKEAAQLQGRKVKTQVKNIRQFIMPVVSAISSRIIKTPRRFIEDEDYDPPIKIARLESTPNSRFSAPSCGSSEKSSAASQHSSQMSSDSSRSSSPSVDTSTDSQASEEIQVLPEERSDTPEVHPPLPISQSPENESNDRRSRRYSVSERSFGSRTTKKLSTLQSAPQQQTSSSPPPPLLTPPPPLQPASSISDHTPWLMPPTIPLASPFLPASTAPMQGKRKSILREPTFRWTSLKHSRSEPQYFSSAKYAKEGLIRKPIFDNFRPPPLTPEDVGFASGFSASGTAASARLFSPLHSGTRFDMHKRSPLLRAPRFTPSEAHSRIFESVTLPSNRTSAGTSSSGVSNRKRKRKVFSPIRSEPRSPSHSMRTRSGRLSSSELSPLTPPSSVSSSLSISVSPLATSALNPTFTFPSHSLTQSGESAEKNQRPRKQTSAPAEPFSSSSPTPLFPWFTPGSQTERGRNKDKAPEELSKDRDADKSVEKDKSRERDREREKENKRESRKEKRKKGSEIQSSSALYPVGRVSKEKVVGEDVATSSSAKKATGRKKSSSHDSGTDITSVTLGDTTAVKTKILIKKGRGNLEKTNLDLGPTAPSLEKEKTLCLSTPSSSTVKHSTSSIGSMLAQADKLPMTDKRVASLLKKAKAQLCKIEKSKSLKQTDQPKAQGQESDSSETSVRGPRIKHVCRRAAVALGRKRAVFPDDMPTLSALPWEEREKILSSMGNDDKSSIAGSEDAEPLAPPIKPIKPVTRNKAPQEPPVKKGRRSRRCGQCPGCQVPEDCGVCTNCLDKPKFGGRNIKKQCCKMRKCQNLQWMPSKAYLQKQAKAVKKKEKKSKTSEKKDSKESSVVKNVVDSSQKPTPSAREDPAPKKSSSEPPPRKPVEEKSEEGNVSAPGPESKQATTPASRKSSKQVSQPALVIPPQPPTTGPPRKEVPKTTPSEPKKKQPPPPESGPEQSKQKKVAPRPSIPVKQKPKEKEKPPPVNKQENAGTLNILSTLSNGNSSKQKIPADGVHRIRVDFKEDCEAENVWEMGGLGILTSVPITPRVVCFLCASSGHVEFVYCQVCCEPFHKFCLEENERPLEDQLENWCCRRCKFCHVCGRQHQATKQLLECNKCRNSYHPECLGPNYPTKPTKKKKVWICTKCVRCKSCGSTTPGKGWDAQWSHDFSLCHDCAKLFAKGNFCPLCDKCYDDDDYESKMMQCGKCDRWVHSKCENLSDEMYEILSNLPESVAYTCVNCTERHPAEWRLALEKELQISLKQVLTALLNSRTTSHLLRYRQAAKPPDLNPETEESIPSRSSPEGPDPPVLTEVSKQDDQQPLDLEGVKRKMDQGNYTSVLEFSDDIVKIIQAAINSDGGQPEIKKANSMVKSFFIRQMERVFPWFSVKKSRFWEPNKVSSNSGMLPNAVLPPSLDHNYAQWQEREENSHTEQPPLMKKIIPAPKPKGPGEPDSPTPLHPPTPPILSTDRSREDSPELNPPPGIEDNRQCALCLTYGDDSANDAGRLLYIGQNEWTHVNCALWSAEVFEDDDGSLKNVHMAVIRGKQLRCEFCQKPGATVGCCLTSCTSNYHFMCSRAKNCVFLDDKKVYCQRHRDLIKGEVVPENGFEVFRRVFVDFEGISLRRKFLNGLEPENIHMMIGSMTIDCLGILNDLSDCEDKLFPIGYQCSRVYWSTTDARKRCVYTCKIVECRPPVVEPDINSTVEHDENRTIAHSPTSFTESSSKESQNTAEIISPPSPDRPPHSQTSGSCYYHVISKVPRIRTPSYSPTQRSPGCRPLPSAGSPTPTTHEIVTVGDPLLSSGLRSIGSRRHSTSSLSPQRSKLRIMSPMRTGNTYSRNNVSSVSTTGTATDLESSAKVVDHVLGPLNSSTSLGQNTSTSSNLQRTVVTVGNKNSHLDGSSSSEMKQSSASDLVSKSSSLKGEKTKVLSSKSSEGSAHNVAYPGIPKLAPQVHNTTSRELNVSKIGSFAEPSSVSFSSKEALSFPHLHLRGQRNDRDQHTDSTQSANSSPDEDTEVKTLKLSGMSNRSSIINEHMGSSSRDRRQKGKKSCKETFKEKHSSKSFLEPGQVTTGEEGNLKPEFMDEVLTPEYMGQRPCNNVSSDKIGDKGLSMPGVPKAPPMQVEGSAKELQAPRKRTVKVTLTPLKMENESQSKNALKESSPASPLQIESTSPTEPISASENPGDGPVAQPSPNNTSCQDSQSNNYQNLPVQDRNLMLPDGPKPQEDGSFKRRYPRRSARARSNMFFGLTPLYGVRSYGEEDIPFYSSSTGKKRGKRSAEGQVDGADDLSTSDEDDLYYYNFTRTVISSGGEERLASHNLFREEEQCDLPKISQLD
Sequence of Menin/Histone-lysine N-methyltransferase MLL (Q03164 2719-3969 limits assumed): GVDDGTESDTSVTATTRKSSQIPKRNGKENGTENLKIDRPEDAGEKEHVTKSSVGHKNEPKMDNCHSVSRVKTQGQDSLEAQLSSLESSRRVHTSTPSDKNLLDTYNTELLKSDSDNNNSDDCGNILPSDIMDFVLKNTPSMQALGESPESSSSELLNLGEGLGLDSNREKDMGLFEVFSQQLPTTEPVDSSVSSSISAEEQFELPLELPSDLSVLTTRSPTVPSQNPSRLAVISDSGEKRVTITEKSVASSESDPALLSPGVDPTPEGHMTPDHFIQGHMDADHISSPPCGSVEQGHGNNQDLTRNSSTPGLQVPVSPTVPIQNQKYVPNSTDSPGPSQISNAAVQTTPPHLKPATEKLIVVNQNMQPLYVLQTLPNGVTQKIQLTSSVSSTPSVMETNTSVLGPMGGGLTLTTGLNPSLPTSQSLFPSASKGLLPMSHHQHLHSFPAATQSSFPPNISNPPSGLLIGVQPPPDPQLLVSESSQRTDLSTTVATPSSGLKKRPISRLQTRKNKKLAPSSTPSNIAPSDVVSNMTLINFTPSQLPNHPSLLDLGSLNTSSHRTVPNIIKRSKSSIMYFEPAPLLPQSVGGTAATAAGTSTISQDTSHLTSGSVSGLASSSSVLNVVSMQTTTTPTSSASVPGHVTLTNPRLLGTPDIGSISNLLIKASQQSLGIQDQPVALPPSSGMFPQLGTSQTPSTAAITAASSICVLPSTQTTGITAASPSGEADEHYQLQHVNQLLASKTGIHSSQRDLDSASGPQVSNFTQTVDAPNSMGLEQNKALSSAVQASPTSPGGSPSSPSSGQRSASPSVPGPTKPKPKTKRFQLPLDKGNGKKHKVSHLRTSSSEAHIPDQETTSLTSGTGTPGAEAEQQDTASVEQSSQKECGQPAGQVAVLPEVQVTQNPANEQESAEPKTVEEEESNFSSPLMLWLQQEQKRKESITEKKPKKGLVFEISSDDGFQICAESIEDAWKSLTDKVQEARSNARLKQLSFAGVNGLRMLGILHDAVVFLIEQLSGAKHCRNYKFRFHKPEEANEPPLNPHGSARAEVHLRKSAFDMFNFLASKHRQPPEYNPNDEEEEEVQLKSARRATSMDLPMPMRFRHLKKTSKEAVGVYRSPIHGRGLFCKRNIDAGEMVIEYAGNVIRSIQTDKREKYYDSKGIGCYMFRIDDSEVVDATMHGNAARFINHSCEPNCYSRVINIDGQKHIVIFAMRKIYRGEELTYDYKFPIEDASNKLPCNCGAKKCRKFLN

Work on `CC1(C)CN=C(N2CCN(c3ncnc4sc5c(c34)CCCC5)CC2)S1` yielded a bioavailability (in vivo) of 77%.
With `COC(=O)N[C@H]1CCC[C@@H]1[C@](C#N)(c1cccc(F)c1)C1CCN(CC2CN(c3ccc(S(=O)(=O)C4CCC4)cc3)C2)CC1` the IC50 [1] was 0.007 µM and the GI50 (MV4-11 [2]) was 0.21 µM.
Work on `COc1cc2nc(N3CCCN(C)CC3)nc(NC3CCN(Cc4ccccc4)CC3)c2cc1OC` yielded an IC50 [3] of 0.5 µM.
`O=C(CCl)Nc1ccc(S(=O)(=O)c2ccc(NC(=O)CCl)cc2)cc1` showed a GI50 (A549) of 0.702 µM, a GI50 (NCI-H1299) of 0.684 µM and a GI50 (MDA-MB-231) of 0.597 µM. For the same molecule, the GI50 (MCF7) was 0.413 µM.
`COC(=O)N[C@H]1CCC[C@@H]1[C@](C#N)(c1cccc(F)c1)C1CCN(CC2CN(c3ccc(S(=O)(=O)C4CN(C(=O)/C=C/CN(C)C)C4)cc3)C2)CC1` showed an IC50 [1] of 0.003 µM, a GI50 (MV4-11 [4]) of 0.0023 µM and a GI50 (K562) of 0.9 µM. The GI50 [5] was 0.9 µM, the GI50 (SKM-1) was 0.9 µM and the GI50 (HL-60 [6]) was 0.9 µM.
Molecule `COc1cc2c(NC3CCN(C(C)C)CC3)nc(C3CCCCC3)nc2cc1OCCCN1CCCC1` has an IC50 [3] of 0.081 µM.
Work on `CC1CN1c1cc(O)c2nc(N)sc2c1` (stereo unspecified) yielded a GI50 (PBMC [7]) of 1.3 µM and a GI50 (PBMC [8]) of 0.87 µM.
In the case of `C=CC(=O)N1CC(S(=O)(=O)c2ccc(N3CC(CN4CCC([C@@](C#N)(c5cccc(F)c5)[C@H]5CCC[C@@H]5NC(=O)OC)CC4)C3)cc2)C1`, the GI50 (MV4-11 [2]) is reported as 0.006 µM, the GI50 (HL-60 [9]) is reported as 3.2 µM and the RatioGI50 [10] is reported as over 500.
In the case of `C=CC(=O)Nc1cc(-c2ccc(N3CCNCC3)cc2)cc(C(=O)NCc2c(CC)cc(C)[nH]c2=O)c1C`, the IC50 [11] is reported as 0.047 µM.
